This is an account of results in ChEMBL document CHEMBL4819045 (Bioorg Med Chem Lett, 2021).

Where only a bound is given, the exact number is not on record here.

Data set [1] in a line: in vitro. As to conditions: rat.
Data set [2] can be described thus: in vitro. As to conditions: PAMPA. For orientation: PAMPA measures passive passage across an artificial lipid membrane.
For data set [3] the following is noted: PAMPA.
The conditions of data set [4]: rat, microsomes.

As a reminder, the half-life is the time in which the quantity being followed falls by half. High values mean slow decline, low ones rapid decline. The compound `O=C(Nc1ccc([N+](=O)[O-])cc1Cl)c1ccc(Cl)cc1O` returned a half-life in the data set “in vitro [1]” (liver microsomes) of 21.2 min. In general, Papp refers to a coefficient for how fast a substance crosses the barrier. Read a high Papp as fast passage. `Cc1ccc(NC(=O)c2cc(Cl)ccc2O)cc1` returned a half-life in the data set “in vitro [1]” (liver microsomes) of 1.6 min. For the same compound, the Papp in the data set “in vitro [2]” came out at 21 ×10⁻⁶ cm/s. In the same order, the values of `O=C(Nc1ccc([N+](=O)[O-])c2ccccc12)c1cc(Cl)ccc1O` are 10.7 min and 141 ×10⁻⁶ cm/s.

Turning to `O=C(Nc1ccc([N+](=O)[O-])cc1Cl)c1c(O)cccc1O`, the half-life in “in vitro [1]” (liver microsomes) came to 26.2 min. For the compound `COc1ccc(Cl)cc1C(=O)Nc1ccc([N+](=O)[O-])cc1Cl`, the permeability in data set [3] is 1007 10^-6 cm/s. Besides, the half-life in the data set “in vitro [1]” (liver microsomes) was 27 min.

Take `COc1ccc(NC(=O)c2cc(Cl)ccc2O)cc1`: in the data set “in vitro [1]” (liver microsomes), the half-life was found to be 3.3 min. Moreover, in the data set “in vitro [2]”, the Papp turned out to be 81 ×10⁻⁶ cm/s. For `COc1ccc(C(=O)Nc2ccc([N+](=O)[O-])cc2Cl)c(O)c1`, in “in vitro [1]” (liver microsomes), the half-life is above 30 min. The compound further came in with a Papp in the data set “in vitro [2]” below 3 ×10⁻⁶ cm/s. For `O=C(Nc1ccc([N+](=O)[O-])cc1Cl)c1cc(Br)ccc1O` the same measures were above 30 min and 67.1 ×10⁻⁶ cm/s. In the same order, the values of `CN1CCC(NC(=O)c2cc(Cl)ccc2O)CC1` are 1.8 min and 212 ×10⁻⁶ cm/s.

In the case of `O=C(Nc1ccc([N+](=O)[O-])cc1Cl)c1cc([N+](=O)[O-])ccc1O`, the half-life in the data set “in vitro [1]” (liver microsomes) is above 30 min. The Papp in the data set “in vitro [2]” was determined as 30.3 ×10⁻⁶ cm/s. As to `O=C(Nc1ccc(C(F)(F)F)cc1Cl)c1cc(-c2ccc(F)cc2F)ccc1O`, the half-life in the data set “in vitro [1]” (liver microsomes) is above 30 min.

Compound `Nc1cccc(Cl)c1C(=O)Nc1ccc([N+](=O)[O-])cc1Cl` yielded a half-life in “in vitro [1]” (liver microsomes) of 2.2 min. For the same compound, in “in vitro [2]”, the apparent permeability coefficient (Papp) was 450 ×10⁻⁶ cm/s. For `Nc1ccc(Cl)cc1C(=O)Nc1ccc([N+](=O)[O-])cc1Cl` the same measures were 8.7 min and 671 ×10⁻⁶ cm/s. As for `O=C(Nc1ccccc1Cl)c1cc(Cl)ccc1O`, the permeability in data set [3] is given as 118 10^-6 cm/s. Further, the half-life in “in vitro [1]” (liver microsomes) came out at 19 min. As for `COc1cc([N+](=O)[O-])ccc1NC(=O)c1cc(Br)ccc1O`, in “in vitro [1]” (liver microsomes), the half-life is above 30 min.

On to `O=C(Nc1ccc(F)cc1F)c1cc(Cl)ccc1O`, for which the half-life in the data set “in vitro [1]” (liver microsomes) came to 18 min. The same measure, in the same setting: the same measure for `O=C(Nc1ccc(C(F)(F)F)cc1Cl)c1cc(Cl)ccc1O`: above 30 min. Consider `O=C(Nc1ccc(C(F)(F)F)c(Cl)c1)c1cc(Br)ccc1O`, for which, in “in vitro [1]” (liver microsomes), the half-life is above 30 min. For the same compound, the Papp in the data set “in vitro [2]” amounted to 23.2 ×10⁻⁶ cm/s.

In the case of `O=C(Nc1ccccc1[N+](=O)[O-])c1cc(Cl)ccc1O`, in “in vitro [2]”, the Papp was 153 ×10⁻⁶ cm/s. Compound `O=C(Nc1c(Cl)cc([N+](=O)[O-])cc1Cl)c1cc(Cl)ccc1O` had a half-life in the data set “in vitro [1]” (liver microsomes) of 20 min.

Turning to `Cc1cccc(NC(=O)c2cc(Cl)ccc2O)c1C`, the half-life in the data set “in vitro [1]” (liver microsomes) was found to be 9.4 min. In addition, the Papp in the data set “in vitro [2]” is 48 ×10⁻⁶ cm/s. In the case of `O=C(Nc1ccc([N+](=O)[O-])cc1Cl)c1cc(-c2ccc(F)cc2F)ccc1O`, in “in vitro [1]” (liver microsomes), the half-life was above 30 min. In “in vitro [2]”, this compound came in with a Papp below 23.7 ×10⁻⁶ cm/s.

Compound `N#Cc1ccc(NC(=O)c2ccc3ccccc3c2O)c(Cl)c1` showed a half-life in “in vitro [1]” (liver microsomes) of 27 min. This compound also displayed a Papp in the data set “in vitro [2]” of 111 ×10⁻⁶ cm/s. For `COc1ccc(Cl)c(NC(=O)c2cc(Cl)ccc2O)c1` the same measures were 5.4 min and 34 ×10⁻⁶ cm/s.

In the data set “in vitro [1]” (liver microsomes), `COc1cccc(NC(=O)c2cc(Cl)ccc2O)c1` had a half-life of 4 min. The compound further came in with a Papp in the data set “in vitro [2]” of 43 ×10⁻⁶ cm/s.

On to `O=C(Nc1ccccc1C(F)(F)F)c1cc(Cl)ccc1O`, for which, in “in vitro [1]” (liver microsomes), the half-life is 15 min. This compound showed a Papp in the data set “in vitro [2]” of 26 ×10⁻⁶ cm/s. On to `O=C(Nc1ccc([N+](=O)[O-])cc1Cl)c1cc(Cl)ccc1O` [NICLOSAMIDE], for which the half-life in the data set “in vitro [1]” (microsomes) was above 30 min. This compound came in with a Papp in “in vitro [2]” below 1 ×10⁻⁶ cm/s. Turning to `O=C(Nc1ccc(C(F)(F)F)cc1)c1cc(Cl)ccc1O`, the half-life in “in vitro [1]” (liver microsomes) is above 30 min. In the data set “in vitro [2]”, the Papp is below 22.3 ×10⁻⁶ cm/s. Turning to `O=C(Nc1ccc(F)cc1)c1cc(Cl)ccc1O`, the permeability in data set [3] is on record as 390.8 10^-6 cm/s. Moreover, the half-life in the data set “in vitro [1]” (liver microsomes) is 18.4 min. For `O=C(Nc1ccc([N+](=O)[O-])cc1Cl)c1cccc2cc[nH]c12` the same measures were 1763 10^-6 cm/s and above 30 min. For the compound `O=C(Nc1ccc(C(F)(F)F)c(F)c1)c1cc(Br)ccc1O`, the half-life in the data set “in vitro [1]” (liver microsomes) was above 30 min.

Compound `O=C(Nc1ccc([N+](=O)[O-])cc1Cl)c1c(O)ccc2ccccc12` came in with a half-life in the data set “in vitro [1]” (liver microsomes) of 14.4 min. In the data set “in vitro [2]”, this compound registered a Papp of 356 ×10⁻⁶ cm/s. For `O=C(Nc1ccc(Cl)cc1)c1cc(Cl)ccc1O` the same measures were 14 min and 297 ×10⁻⁶ cm/s. In “in vitro [1]” (liver microsomes), `O=C(Nc1ccc([N+](=O)[O-])cc1Cl)c1ccc2ccccc2c1O` returned a half-life of 16.6 min. The compound also registered a Papp in the data set “in vitro [2]” of 90.2 ×10⁻⁶ cm/s.

For the compound `O=C(Nc1c(Cl)cccc1Cl)c1cc(Cl)ccc1O`, the half-life in “in vitro [1]” (liver microsomes) came out at 24 min. In addition, in “in vitro [2]”, the Papp worked out at 73 ×10⁻⁶ cm/s. In the same order, the values of `CS(=O)(=O)Nc1ccc(Br)cc1C(=O)Nc1ccc([N+](=O)[O-])cc1Cl` are above 30 min and 85.1 ×10⁻⁶ cm/s. `N#Cc1ccc(NC(=O)c2cc(-c3ccc(F)cc3F)ccc2O)c(Cl)c1` came in with a half-life in “in vitro [1]” (liver microsomes) above 30 min. Take `O=C(Nc1c(F)cccc1F)c1cc(Cl)ccc1O`: the half-life in the data set “in vitro [1]” (liver microsomes) is above 30 min. Also, the Papp in “in vitro [2]” was 32 ×10⁻⁶ cm/s. For `Nc1ccc(NC(=O)c2cc(Cl)ccc2O)c(Cl)c1` the same measures were 30 min and 152 ×10⁻⁶ cm/s. For `CN(C)C(=O)c1cccc(NC(=O)c2cc(Cl)ccc2O)c1` the same measures were 26 min and 5 ×10⁻⁶ cm/s. In the same order, the values of `COc1ccc(O)c(C(=O)Nc2ccc([N+](=O)[O-])cc2Cl)c1` are 17.8 min and 67.1 ×10⁻⁶ cm/s. With `O=C(Nc1ccc2cc([N+](=O)[O-])ccc2c1)c1cc(Cl)ccc1O`, the half-life in “in vitro [1]” (liver microsomes) was above 30 min. In “in vitro [2]”, the Papp came to 447 ×10⁻⁶ cm/s. For `O=C(Nc1ccncc1Cl)c1cc(Cl)ccc1O` the same measures were above 30 min and 31 ×10⁻⁶ cm/s. Turning to `COc1cc([N+](=O)[O-])ccc1NC(=O)c1cc(Cl)ccc1O`, the half-life in “in vitro [1]” (liver microsomes) was above 30 min.

`Cc1ccc(O)c(C(=O)Nc2ccc([N+](=O)[O-])cc2Cl)c1` showed a half-life in the data set “in vitro [1]” (liver microsomes) of 19.5 min. Also, the Papp in “in vitro [2]” is 134 ×10⁻⁶ cm/s. In the same order, the values of `O=C(Nc1ccc(Cl)cc1Cl)c1cc(Cl)ccc1O` are above 30 min and below 22.4 ×10⁻⁶ cm/s.

As to `O=C(Nc1ccc(F)c(Cl)c1)c1cc(Cl)ccc1O`, in the data set “in vitro [1]” (liver microsomes), the half-life worked out at 11 min. In the case of `O=C(Nc1ccc(F)cc1Cl)c1cc(Cl)ccc1O`, the half-life in “in vitro [1]” (liver microsomes) amounted to 19.3 min. In “in vitro [2]”, this compound had a Papp of 50.5 ×10⁻⁶ cm/s. For `O=C(Nc1ccc([N+](=O)[O-])cc1Cl)c1cc(Cl)ccc1OC1CCNCC1` the same measures were above 30 min and 517 ×10⁻⁶ cm/s. In the same order, the values of `O=C(Nc1ncc([N+](=O)[O-])s1)c1cc(Cl)ccc1O` are 3 min and 37 ×10⁻⁶ cm/s. In turn, `O=C(Nc1ccc([N+](=O)[O-])c(Cl)c1)c1cc(Br)ccc1O` displayed a half-life in the data set “in vitro [1]” (liver microsomes) of 20.3 min.

In the case of `O=C(Nc1ccc([N+](=O)[O-])c(Cl)c1)c1cc(Cl)ccc1O`, in the data set “in vitro [1]” (liver microsomes), the half-life worked out at 3.8 min. For the same compound, the Papp in the data set “in vitro [2]” was found to be 68 ×10⁻⁶ cm/s. Turning to `CC(=O)Nc1ccccc1C(=O)Nc1ccc([N+](=O)[O-])cc1Cl`, in “in vitro [2]”, the apparent permeability coefficient (Papp) stood at 431 ×10⁻⁶ cm/s. `CC(=O)Nc1ccc(NC(=O)c2cc(Cl)ccc2O)c(Cl)c1`: the half-life in the data set “in vitro [1]” (liver microsomes) is above 30 min. In “in vitro [2]”, this compound showed a Papp of 87 ×10⁻⁶ cm/s. Turning to `N#Cc1ccc(NC(=O)c2cc(Cl)ccc2O)c(Cl)c1`, the half-life in “in vitro [1]” (liver microsomes) is above 30 min. In “in vitro [2]”, the Papp is 5.1 ×10⁻⁶ cm/s. In the same order, the values of `O=C(Nc1c(Cl)cc(F)cc1Cl)c1cc(Cl)ccc1O` are 13 min and 25 ×10⁻⁶ cm/s.

The compound `O=C(Nc1ccc([N+](=O)[O-])cc1Cl)c1cnc2ccccc2c1O` had a half-life in “in vitro [1]” (liver microsomes) of 18 min. This compound also displayed a Papp in “in vitro [2]” of 499 ×10⁻⁶ cm/s. For `NS(=O)(=O)c1ccc(NC(=O)c2cc(Cl)ccc2O)cc1` the same measures were above 30 min and below 1 ×10⁻⁶ cm/s.

On to `O=C(Nc1ccc([N+](=O)[O-])cc1Cl)c1cc(Cl)ccc1NS(=O)(=O)c1ccccc1`, for which, in data set [3], the permeability is listed as 2250 10^-6 cm/s. Moreover, in the data set “in vitro [1]” (liver microsomes), the half-life was above 30 min. Consider `CC(=O)c1ccc(O)c(C(=O)Nc2ccc([N+](=O)[O-])cc2Cl)c1`, for which the half-life in the data set “in vitro [1]” (liver microsomes) was above 30 min. Besides, the Papp in the data set “in vitro [2]” was found to be 33.1 ×10⁻⁶ cm/s. Turning to `N#Cc1ccc(NC(=O)c2cccc3cc[nH]c23)c(Cl)c1`, the half-life in “in vitro [1]” (liver microsomes) amounted to 15 min. Besides, the Papp in the data set “in vitro [2]” stood at 553 ×10⁻⁶ cm/s.

As to `O=C(Nc1ccc(C(F)(F)F)cc1Cl)c1cc(Br)ccc1O`, the half-life in the data set “in vitro [1]” (liver microsomes) is above 30 min. On the same count and under the same terms, the value for `O=C(Nc1ccc(C(F)(F)F)cc1)c1cc(Br)ccc1O` was above 30 min. For `O=C(Nc1ccc([N+](=O)[O-])cc1)c1cc(Cl)ccc1O`, in data set [4], the Stabilty came to 22 min. Besides, the permeability in data set [3] is on record as 127.1 10^-6 cm/s. Consider `NCCOc1ccc(Cl)cc1C(=O)Nc1ccc([N+](=O)[O-])cc1Cl`, for which the permeability in data set [3] is recorded as 1023 10^-6 cm/s. Besides, in “in vitro [1]” (liver microsomes), the half-life was above 30 min. In “in vitro [1]” (liver microsomes), `CC(C)c1cnc(NC(=O)c2cc(Cl)ccc2O)s1` had a half-life of 2 min. The compound further registered a Papp in “in vitro [2]” of 117 ×10⁻⁶ cm/s. In the case of `O=C(Nc1ccc(C(F)(F)F)cc1Cl)c1ccc2ccccc2c1O`, in the data set “in vitro [1]” (liver microsomes), the half-life was above 30 min.
